Data reported in DBAASP.
≈ marks a conversion by molar mass, not a printed value. Where “and” joins values, the source holds several entries; their conditions need not be identical. Equal values may be shown once.

Key:
Assay in all cases: ≥ marks a high value that may be exact or a test limit, other limits are often not marked, values filed in µg/mL are converted to µM
Acinetobacter baumannii = system: Acinetobacter baumannii
[1] = system: Enterococcus faecalis ATCC 29212
[2] = system: Escherichia coli ATCC 25922
[3] = system: Staphylococcus aureus ATCC 29213
[4] = system: Pseudomonas aeruginosa ATCC 27853
[5] = system: Bacillus subtilis ATCC 23857
[6] = system: Candida albicans ATCC 10231
[7] = system: Pseudomonas aeruginosa PAO1
[8] = system: Klebsiella pneumoniae ATCC 13883
[9] = system: Staphylococcus aureus USA 300
[10] = system: Pseudomonas aeruginosa ATCC 9027
[11] = system: Staphylococcus aureus ATCC 25923
[12] = system: Klebsiella pneumoniae ATCC 700603
[13] = system: Acinetobacter baumannii ATCC 19606
[14] = system: Staphylococcus epidermidis ATCC 12228
[15] = system: Salmonella enterica subsp. enterica serovar Typhimurium C77-31
Escherichia coli UB1005 = system: Escherichia coli UB1005
[16] = system: Salmonella enterica subsp. enterica serovar Typhimurium ATCC 14028
Klebsiella pneumoniae = system: Klebsiella pneumoniae
Staphylococcus aureus = system: Staphylococcus aureus
Escherichia coli = system: Escherichia coli
[17] = system: Staphylococcus aureus ATCC 33591

| Structure (SMILES) | MIC (Acinetobacter baumannii) [µM] | MIC [2] [µM] | MIC [3] [µM] | MIC [4] [µM] | MIC [11] [µM] | MIC [14] [µM] | further results |
| --- | --- | --- | --- | --- | --- | --- | --- |
| CC(C)C[C@H](NC(=O)[C@H](CC(C)C)NC(=O)[C@H](CCCN=C(N)N)NC(=O)[C@H](CCCCN)NC(=O)[C@H](CCCN=C(N)N)NC(=O)[C@H](CC(C)C)NC(=O)[C@H](CCCCN)NC(=O)[C@H](CCCN=C(N)N)NC(=O)[C@H](CC(C)C)NC(=O)[C@@H](N)CS)C(=O)N[C@@H](CS)C(=O)O [CLRKLRKRLLC] | 22.8 (≈ 32 µg/mL) | 17.1 (≈ 24 µg/mL) | > 22.8 | > 22.8 |  |  | MIC [1]: > 22.8 µM |
| NC(=O)[C@H](CCCN=C(N)N)NC(=O)[C@H](CCCN=C(N)N)NC(=O)[C@H](Cc1ccccc1)NC(=O)[C@H](Cc1ccccc1)NC(=O)[C@H](CCCN=C(N)N)NC(=O)[C@H](CCCN=C(N)N)NC(=O)[C@H](Cc1ccccc1)NC(=O)[C@@H](N)Cc1ccccc1 [FFRRFFRR] |  |  |  |  |  |  | MIC [5]: ≥ 102 µM; MIC [6]: > 406 µM |
| CC(C)C[C@H](NC(=O)[C@H](CC(C)C)NC(=O)[C@H](CCCCN)NC(=O)[C@H](CC(C)C)NC(=O)CNC(=O)[C@H](CC(C)C)NC(=O)[C@H](CO)NC(=O)[C@H](CC(C)C)NC(=O)[C@H](CC(C)C)NC(=O)[C@H](CO)NC(=O)[C@H](CC(C)C)NC(=O)[C@H](CC(C)C)NC(=O)CN)C(N)=O [GLLSLLSLGLKLL] |  | > 25 |  |  |  |  | MIC [7]: > 25 µM; MIC [8]: 25 µM (≈ 33.5 µg/mL); MIC [9]: 0.8 µM (≈ 1.07 µg/mL) |
| CC(C)C[C@H](NC(=O)CN)C(=O)N[C@@H](CC(C)C)C(=O)N[C@@H](CO)C(=O)N[C@@H](CC(C)C)C(=O)N[C@@H](CC(C)C)C(=O)N[C@@H](CO)C(=O)N[C@@H](CC(C)C)C(=O)N[C@@H](CC(C)C)C(=O)NCC(=O)N[C@@H](CCCCN)C(=O)N[C@@H](CC(C)C)C(=O)N[C@@H](C)C(N)=O [GLLSLLSLLGKLA] |  | 2.16 (≈ 2.8 µg/mL) |  |  |  |  | MIC [7]: > 25 µM; MIC [8]: 17.7 µM (≈ 22.9 µg/mL); MIC [9]: 1.56 µM (≈ 2.02 µg/mL) |
| CC[C@H](C)[C@H](N)C(=O)N[C@H](C(=O)N[C@H](C(=O)N[C@@H](CCCCN)C(=O)N[C@@H](CO)C(=O)N[C@@H](CC(C)C)C(=O)NCC(=O)N[C@@H](CCCCN)C(=O)N[C@@H](Cc1ccccc1)C(=O)N[C@@H](CC(C)C)C(=O)N[C@@H](CCCCN)C(=O)N[C@@H](CC(N)=O)C(=O)N[C@H](C(=O)NCC(=O)NCC(=O)N[C@@H](Cc1ccccc1)C(=O)N[C@@H](C)C(=O)NCC(=O)O)C(C)C)[C@@H](C)CC)C(C)C [IVIKSLGKFLKNVGGFAG] | ≥ 64 | > 64 |  |  | > 64 |  | MIC [10]: > 64 µM; MIC [12]: > 64 µM |
| NCCCC[C@H](NC(=O)[C@H](CCCCN)NC(=O)[C@H](Cc1c[nH]c2ccccc12)NC(=O)[C@H](CCCN=C(N)N)NC(=O)[C@H](CCCCN)NC(=O)[C@H](Cc1c[nH]c2ccccc12)NC(=O)[C@H](Cc1c[nH]c2ccccc12)NC(=O)[C@@H](N)CCCCN)C(=O)N[C@@H](Cc1c[nH]c2ccccc12)C(=O)N[C@@H](Cc1c[nH]c2ccccc12)C(N)=O [KWWKRWKKWW] |  | 16 (≈ 25.9 µg/mL) |  | 8 (≈ 12.9 µg/mL) | 8 (≈ 12.9 µg/mL) | 8 (≈ 12.9 µg/mL) | MIC [5]: 4 µM (≈ 6.47 µg/mL); MIC [1]: 16 µM (≈ 25.9 µg/mL); MIC [13]: 8 µM (≈ 12.9 µg/mL); MIC [12]: 16 µM (≈ 25.9 µg/mL) |
| CC(C)C[C@H](NC(=O)[C@H](C)NC(=O)[C@H](CCCCN)NC(=O)[C@H](CC(C)C)NC(=O)[C@H](CC(N)=O)NC(=O)[C@@H](N)CC(C)C)C(=O)N[C@@H](CC(C)C)C(=O)N[C@@H](C)C(=O)N[C@H](C(=O)N[C@@H](C)C(=O)N[C@@H](CCCCN)C(N)=O)C(C)C [LNLKALLAVAK] |  | > 128 |  |  | > 128 |  | MIC [5]: ≥ 128 µM; MIC [10]: > 128 µM; MIC [12]: > 128 µM |
| C[C@@H](O)[C@H](NC(=O)[C@H](CCCN=C(N)N)NC(=O)[C@H](CCCN=C(N)N)NC(=O)[C@H](CCCN=C(N)N)NC(=O)[C@@H]1CCCN1C(=O)[C@@H](N)CO)C(=O)N1CCC[C@H]1C(=O)N[C@@H](CO)C(=O)N1CCC[C@H]1C(=O)N[C@@H](CCCN=C(N)N)C(=O)N[C@@H](CCCN=C(N)N)C(=O)N[C@@H](CCCN=C(N)N)C(=O)N[C@@H](CCCN=C(N)N)C(=O)N[C@@H](CO)C(=O)N[C@@H](CCC(N)=O)C(=O)N[C@@H](CO)C(=O)N1CCC[C@H]1C(=O)N[C@@H](CCCN=C(N)N)C(=O)N[C@@H](CCCN=C(N)N)C(=O)N[C@@H](CCCN=C(N)N)C(N)=O [SPRRRTPSPRRRRSQSPRRR] |  | 25 (≈ 63.6 µg/mL) |  | 100 (≈ 254 µg/mL) | > 100 |  | MIC [17]: ≥ 100 µM |

Further lines, with some results ahead:

| MIC (Acinetobacter baumannii) [µM] | MIC [2] [µM] | MIC [3] [µM] | MIC [4] [µM] | MIC [11] [µM] | MIC [14] [µM] | Structure (SMILES) | further results |
| --- | --- | --- | --- | --- | --- | --- | --- |
|  | 4 (≈ 6.26 µg/mL) | 32 (≈ 50.1 µg/mL) |  | 32 (≈ 50.1 µg/mL) | 64 (≈ 100 µg/mL) | CC(C)C[C@H](NC(=O)[C@H](CCCN=C(N)N)NC(=O)[C@H](CC(C)C)NC(=O)[C@H](CCCN=C(N)N)NC(=O)[C@@H](NC(=O)[C@H](CCCCN)NC(=O)[C@H](CC(C)C)NC(=O)[C@H](CCCN=C(N)N)NC(=O)[C@H](CC(C)C)NC(=O)[C@H](CCCN=C(N)N)NC(=O)[C@@H](N)CC(C)C)[C@@H](C)O)C(=O)N[C@@H](CCCCN)C(N)=O [LRLRLKTRLRLK] | MIC [15]: 16 µM (≈ 25 µg/mL); MIC (Escherichia coli UB1005): 4 µM (≈ 6.26 µg/mL) |
|  | 128 (≈ 188 µg/mL) | 128 (≈ 188 µg/mL) | > 128 |  | > 128 | CC(C)C[C@H](NC(=O)[C@H](CCCN=C(N)N)NC(=O)[C@H](CC(N)=O)NC(=O)[C@H](C)NC(=O)[C@H](CCCN=C(N)N)NC(=O)[C@H](CC(C)C)NC(=O)[C@H](Cc1c[nH]c2ccccc12)NC(=O)[C@H](CC(C)C)NC(=O)[C@H](CCCN=C(N)N)NC(=O)[C@H](CCCN=C(N)N)NC(=O)[C@@H](N)CC(C)C)C(N)=O [LRRLWLRANRL] | MIC [1]: > 128 µM; MIC [15]: ≥ 128 µM |
| 2.6 (≈ 5.12 µg/mL) |  |  |  | > 30 |  | CC(C)C[C@H](NC(=O)[C@H](CCCN=C(N)N)NC(=O)[C@H](CCCN=C(N)N)NC(=O)[C@H](C)NC(=O)[C@H](Cc1c[nH]c2ccccc12)NC(=O)CNC(=O)[C@H](CCCN=C(N)N)NC(=O)[C@@H](N)CCCN=C(N)N)C(=O)N[C@@H](Cc1ccccc1)C(=O)N[C@@H](Cc1ccccc1)C(=O)N[C@@H](C)C(=O)N[C@@H](Cc1ccc(O)cc1)C(=O)NCC(=O)N[C@@H](CCCN=C(N)N)C(=O)N[C@@H](CCCN=C(N)N)C(N)=O [RRGWARRLFFAYGRR] | MIC [16]: 1.5 µM and 2.2 µM; MIC (Klebsiella pneumoniae): 1.2 µM (≈ 2.36 µg/mL); MIC [8]: 5.4 µM and 8.6 µM; MIC [13]: 1.7 µM and 1.5 µM |
|  | 16 (≈ 27.6 µg/mL) | 64 (≈ 110 µg/mL) |  | 32 (≈ 55.2 µg/mL) | 16 (≈ 27.6 µg/mL) | CC(C)C[C@H](NC(=O)[C@H](CCCN=C(N)N)NC(=O)[C@H](CCCCN)NC(=O)[C@H](CCCN=C(N)N)NC(=O)[C@@H](NC(=O)[C@H](Cc1c[nH]c2ccccc12)NC(=O)[C@H](CCCCN)NC(=O)[C@H](CCCN=C(N)N)NC(=O)[C@H](CC(C)C)NC(=O)[C@H](Cc1c[nH]c2ccccc12)NC(=O)[C@@H](N)CCCN=C(N)N)[C@@H](C)O)C(=O)N[C@@H](CCCCN)C(N)=O [RWLRKWTRKRLK] | MIC [15]: ≥ 64 µM; MIC (Escherichia coli UB1005): 16 µM (≈ 27.6 µg/mL) |
| 2 (≈ 5.71 µg/mL) | 1 (≈ 2.86 µg/mL) | 2 (≈ 5.71 µg/mL) |  |  |  | CC(C)C[C@H](NC(=O)[C@@H]1CCCN1C(=O)[C@H](CCCN=C(N)N)NC(=O)[C@H](Cc1ccc(O)cc1)NC(=O)[C@@H](NC(=O)[C@@H]1CCCN1C(=O)[C@H](CCCN=C(N)N)NC(=O)[C@H](Cc1ccc(O)cc1)NC(=O)[C@@H]1CCCN1C(=O)[C@@H]1CCCN1C(=O)[C@@H]1CCCN1C(=O)[C@H](CCCN=C(N)N)NC(=O)[C@H](Cc1ccc(O)cc1)NC(=O)[C@@H](NC(=O)[C@H](CC(N)=O)NC(=O)[C@@H](N)CO)C(C)C)C(C)C)C(=O)N[C@@H](CCCN=C(N)N)C(=O)N[C@@H](CCCN=C(N)N)C(=O)N1CCC[C@H]1C(=O)NCC(=O)N[C@@H](Cc1ccc(O)cc1)C(=O)N[C@@H](CCCN=C(N)N)C(=O)N1CCC[C@H]1C(N)=O [SNVYRPPPYRPVYRPLRRPGYRP] | MIC (Staphylococcus aureus): 32 µM (≈ 91.4 µg/mL); MIC (Escherichia coli): 2 µM (≈ 5.71 µg/mL); MIC [13]: 2 µM (≈ 5.71 µg/mL) |
